We go through seven molecules from paper PMC2872594 (Clinical Medicine. Oncology, 2009).

Usually IC50 stands for the concentration that inhibits the measured activity by half. By Km is commonly meant the concentration of substrate that gives half-maximal velocity.

For data set [1], the system named is A2780/AD cells. The experiment in a line: In vitro cytotoxicity (WSK-8) assay. The class given is cell-based. The method, then:
In vitro cytotoxicity (WSK-8) assays
The proliferation of exponential phase cultures of A2780/AD cells was assessed by colorimetric assay (WSK-8). In brief, cells were plated onto a 96 well microtiter plates at 5,000 cells per well. After a 24 hour incubation period to facilitate adherence, the RPMI media was removed and replaced with 100 or 200 μL of fresh media containing the different concentrations of drug. The cells were then incubated for 1 or 3 days at 37 °C at 95% humidity and 5% CO2. The media was then removed, and replaced with 100 μL fresh media containing 10% WSK-8 dye. The plates were incubated for 1.5 hours and subsequently measured at 450 nm with a 96-well plate reader. A non-linear curve fitted to the concentrations tested was used and the data plotted using Origin software. Each concentration was run in triplicate, and drug was tested 3 times.

Data set [2] concerns reduced folate carrier (RFC). The conditions noted are these: cited from earlier work.
In data set [3] the test system is folate receptor (FR). The conditions noted are these: cited from earlier work.
Data set [4] addresses T1, dihydrofolate reductase (DHFR) (Homo sapiens, UniProt P00374).
T1 construct: purchased Sigma Aldrich
T1 sequence (P00374 1-187): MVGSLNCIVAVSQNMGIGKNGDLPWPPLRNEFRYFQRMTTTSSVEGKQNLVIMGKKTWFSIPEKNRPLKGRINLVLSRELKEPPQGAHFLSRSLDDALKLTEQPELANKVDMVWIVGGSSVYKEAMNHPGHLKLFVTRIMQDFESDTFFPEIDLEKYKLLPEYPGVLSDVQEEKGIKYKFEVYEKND
The experiment in a line: In vitro, cell free DHFR inhibition assay. Type of data set: biochemical. The conditions noted are these: cell free colorimetric assay, absorbance over 2.5 minutes. On the procedure:
In vitro, cell free DHFR inhibition assay
The DHFR calorimetric assay was purchased from Sigma Aldrich, and was performed according to instructions. Briefly, DHFR was mixed with inhibitor and NADPH.
The percent of control was plotted, and a fit using a power regression line used.

Data set [5] is described as follows: Stability study in PBS buffer (HPLC). Type of data set: physicochemical. The conditions noted are these: phosphate buffered saline pH 7.4, 37 °C. On the procedure:
To explain the in vitro results, the stability of the compounds was examined. (3) was dissolved in phosphate buffered saline at a pH of 7.4, and incubated at 37 °C. Time points were taken at 24 and 72 hours. […] While not completely stable over the time tested, the stability of the carbamate linkage could be preventing the nucleoside from being released in the cell over the earlier time points. This is consistent with previous nucleoside conjugate work reported and the observation that (2) and (3) have a greater toxicity at 72 hours than the carrier system (1). The delay in the release could explain the discrepancies between the conjugated and the unconjugated systems.
(3) was dissolved in PBS buffer 1 at pH 7.4 in a concentration of [l mM]. The solution was incubated at 37 °C for 24 and 72 hours. Samples from the solution were examined using the HPLC Eclipse XDB C18 analytical column (4.6 × […]; Agilent Technologies). The method conditions were the same as the purification with a flow rate of 0.7 ml/min.

The mark [6] stands for this setting: A2780AD, 24 h, read-out: In vitro IC50, 24 hours.
Where [7] appears, read: A2780AD, 72 h, read-out: In vitro IC50, 72 hours.
The mark [8] stands for this setting: A2780/AD ovarian cancer cell line, 24 hours incubation, folate deficient media, read-out: In vitro IC50, 24 hours.
Where [9] appears, read: A2780/AD ovarian cancer cell line, 72 hours incubation, folate deficient media, read-out: In vitro IC50, 72 hours.

Where two headings read alike, the source gives them in different places.

`Cc1cn([C@H]2C[C@H](N=[N+]=[N-])[C@@H](CO)O2)c(=O)[nH]c1=O` [AZT, 3’-Azido-3’-deoxythymidine, reference compound]: the IC50 is greater than 10000 µM in data set [1] (setting [6]) and 8000 ± 1000 µM in data set [1] (setting [7]).
In the case of `Nc1nc(=O)c2nc(CNc3ccc(C(=O)N[C@@H](CCC(=O)O)C(=O)O)cc3)cnc2[nH]1` [Folate, Folic acid], in data set [2], the Michaelis-Menten constant (Km) was 200 to 400 µM.
For the molecule `CN(Cc1cnc2nc(N)nc(N)c2n1)c1ccc(C(=O)N[C@@H](CCC(=O)O)C(=O)O)cc1` [MTX, Methotrexate], in data set [2], the Km is 5 to 10 µM. Besides, the “Greater affinity for the RFC over folate” value in data set [2] (relative to folate) is given as 100 times. Moreover, the IC50 in data set [1] (setting [6]) was greater than 10000 µM; in data set [1] (setting [7]), 7000 ± 900 µM. Besides, the “Lower affinity of FR for MTX over folate” value in data set [3] (relative to folate) was “approximately 100 fold”. Besides, the “Less affinity for the FR than oxidized folate” value in data set [3] (relative to oxidized folate) is recorded as 100 fold.
In the case of γ-MTX-PEG-AZT [Compound 2], the IC50 is 152 µM in data set [4], greater than 1000 µM in data set [1] (setting [8]) and 430 ± 30 µM in data set [1] (setting [9]).
As to γ-MTX-PEG-IUdR [Compound 3], the “Stability, free nucleoside after 24 hours” value in data set [5] (24 hours) is on record as “no sign of free nucleoside”. Besides, in data set [5] (72 hours), the “Stability, free nucleoside after 72 hours” value is “partial decomposition”. Also, the figures for the IC50 in data set [4], in data set [1] (setting [8]) and in data set [1] (setting [9]) were 394 µM, greater than 1000 µM and 211 ± 100 µM, respectively.
With γ-MTX-PEG-NH2 [Compound 1], the concentration for half-maximal inhibition (IC50) in data set [4] was 200 µM; in data set [1] (setting [8]), greater than 1000 µM; in data set [1] (setting [9]), 700 ± 100 µM.
For the molecule γ-MTX-PEG-ddC [Compound 4], the figures for the half-maximal inhibitory concentration (IC50) in data set [4], in data set [1] (setting [8]) and in data set [1] (setting [9]) were 178 µM, greater than 1000 µM and 960 ± 80 µM, respectively.
